Measurements published in PubChem BioAssay AID2060891 (Molecular Pharmacology Branch, DTP, NCI, 2025).
Blank lines part the entries; values can stand above or below the molecule they belong to.

System: K98450-129-R-PDC complex spheroid growth, percent test/control
Assay: Anticancer human tumor K98450-129-R-PDC patient-derived colon adenocarcinoma cell line growth inhibition [RAS]
Conditions: for IC50: curve of first compound; for viability, T/C: stronger effect = lower value
How it was run: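 Agents were tested in combination matrices in half-log decrements from a top concentration at or near clinical Cmax (10 microM if undetermined). Targets were multi-cell spheroids of tumour lines plus HUVEC and MSC stromal cells.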

[1] = second compound 0.000949 µM, first compound 0.0316 µM
[2] = second compound 0.000949 µM, first compound 0.1 µM
[3] = second compound 0.000949 µM, first compound 0.316 µM
[4] = second compound 0.000949 µM, first compound 1 µM
[5] = second compound 0.003 µM, first compound 0.0316 µM
[6] = second compound 0.003 µM, first compound 0.1 µM
[7] = second compound 0.003 µM, first compound 0.316 µM
[8] = second compound 0.003 µM, first compound 1 µM
[9] = second compound 0.00949 µM, first compound 0.0316 µM
[10] = second compound 0.00949 µM, first compound 0.1 µM
[11] = second compound 0.00949 µM, first compound 0.316 µM
[12] = second compound 0.00949 µM, first compound 1 µM
[13] = second compound 0.03 µM, first compound 0.0316 µM
[14] = second compound 0.03 µM, first compound 0.1 µM
[15] = second compound 0.03 µM, first compound 0.316 µM
[16] = second compound 0.03 µM, first compound 1 µM
[17] = second compound 0.0949 µM, first compound 0.0316 µM
[18] = second compound 0.0949 µM, first compound 0.1 µM
[19] = second compound 0.0949 µM, first compound 0.316 µM
[20] = second compound 0.0949 µM, first compound 1 µM
[21] = second compound 0.3 µM, first compound 0.0316 µM
[22] = second compound 0.3 µM, first compound 0.1 µM
[23] = second compound 0.3 µM, first compound 0.316 µM
[24] = second compound 0.3 µM, first compound 1 µM
[25] = second compound 0.000949 µM, first compound 3.16 µM
[26] = second compound 0.000949 µM, first compound 10 µM
[27] = second compound 0.003 µM, first compound 3.16 µM
[28] = second compound 0.003 µM, first compound 10 µM
[29] = second compound 0.00949 µM, first compound 3.16 µM
[30] = second compound 0.00949 µM, first compound 10 µM
[31] = second compound 0.03 µM, first compound 3.16 µM
[32] = second compound 0.03 µM, first compound 10 µM
[33] = second compound 0.0949 µM, first compound 3.16 µM
[34] = second compound 0.0949 µM, first compound 10 µM
[35] = second compound 0.3 µM, first compound 3.16 µM
[36] = second compound 0.3 µM, first compound 10 µM
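Further: spheroids exposed to agents for seven days before the viability readout.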
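Wherever viability, T/C is given: luminescence used as a proxy for viable cell amount.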

IC50 (second compound 0.000949 µM): > 1000 nM
IC50 (second compound 0.003 µM): 723 nM
IC50 (second compound 0.00949 µM): 73.2 nM
IC50 (second compound 0.03 µM): 23.7 nM
IC50 (second compound 0.0949 µM): < 3.16 nM
IC50 (second compound 0.3 µM): < 3.16 nM
Structure (SMILES): CCN1CCN(Cc2ccc(Nc3ncc(F)c(-c4cc(F)c5nc(C)n(C(C)C)c5c4)n3)nc2)CC1 + CCn1c(-c2cc(N3CCN(C)CC3)cnc2C(C)OC)c2c3cc(ccc31)-c1csc(n1)CC(NC(=O)C1CC1C)C(=O)N1CCCC(N1)C(=O)OCC(C)(C)C2
viability, T/C (second compound 0.000949 µM, first compound 0.00316 µM): 75.8%
viability, T/C (second compound 0.000949 µM, first compound 0.01 µM): 83%
viability, T/C [1]: 90.9%
viability, T/C [2]: 80.8%
viability, T/C [3]: 65.6%
viability, T/C [4]: 65.6%
viability, T/C (second compound 0.003 µM, first compound 0.00316 µM): 95.1%
viability, T/C (second compound 0.003 µM, first compound 0.01 µM): 85.8%
viability, T/C [5]: 72.5%
viability, T/C [6]: 71%
viability, T/C [7]: 54.1%
viability, T/C [8]: 47.6%
viability, T/C (second compound 0.00949 µM, first compound 0.00316 µM): 79.8%
viability, T/C (second compound 0.00949 µM, first compound 0.01 µM): 64.1%
viability, T/C [9]: 59.2%
viability, T/C [10]: 47.7%
viability, T/C [11]: 38.6%
viability, T/C [12]: 33.2%
viability, T/C (second compound 0.03 µM, first compound 0.00316 µM): 49.8%
viability, T/C (second compound 0.03 µM, first compound 0.01 µM): 51.8%
viability, T/C [13]: 49.7%
viability, T/C [14]: 27.2%
viability, T/C [15]: 24.4%
viability, T/C [16]: 25.9%
viability, T/C (second compound 0.0949 µM, first compound 0.00316 µM): 18.8%
viability, T/C (second compound 0.0949 µM, first compound 0.01 µM): 18.5%
viability, T/C [17]: 17.3%
viability, T/C [18]: 14.1%
viability, T/C [19]: 18.4%
viability, T/C [20]: 22.8%
viability, T/C (second compound 0.3 µM, first compound 0.00316 µM): 10.8%
viability, T/C (second compound 0.3 µM, first compound 0.01 µM): 13.6%
viability, T/C [21]: 11.3%
viability, T/C [22]: 12.7%
viability, T/C [23]: 16.3%
viability, T/C [24]: 23.1%

IC50 (second compound 0.000949 µM): 1400 nM
IC50 (second compound 0.003 µM): 644 nM
IC50 (second compound 0.00949 µM): 224 nM
IC50 (second compound 0.03 µM): < 31.6 nM
IC50 (second compound 0.0949 µM): < 31.6 nM
IC50 (second compound 0.3 µM): < 31.6 nM
Structure (SMILES): Cc1nc(N2CCC3(CC2)COC(C)C3N)c(CO)nc1Sc1ccnc(N)c1Cl (stereo unspecified) + CCn1c(-c2cc(N3CCN(C)CC3)cnc2C(C)OC)c2c3cc(ccc31)-c1csc(n1)CC(NC(=O)C1CC1C)C(=O)N1CCCC(N1)C(=O)OCC(C)(C)C2
viability, T/C [1]: 99.3%
viability, T/C [2]: 71.3%
viability, T/C [3]: 80.2%
viability, T/C [4]: 55.4%
viability, T/C [25]: 35.8%
viability, T/C [26]: 16.7%
viability, T/C [5]: 89%
viability, T/C [6]: 64.3%
viability, T/C [7]: 61.8%
viability, T/C [8]: 51.8%
viability, T/C [27]: 22%
viability, T/C [28]: 11%
viability, T/C [9]: 64.3%
viability, T/C [10]: 53.4%
viability, T/C [11]: 48.2%
viability, T/C [12]: 19.5%
viability, T/C [29]: 8.78%
viability, T/C [30]: 7.55%
viability, T/C [13]: 38.6%
viability, T/C [14]: 39.2%
viability, T/C [15]: 14.5%
viability, T/C [16]: 8.49%
viability, T/C [31]: 8.08%
viability, T/C [32]: 6.16%
viability, T/C [17]: 15.2%
viability, T/C [18]: 13.1%
viability, T/C [19]: 10.9%
viability, T/C [20]: 9.07%
viability, T/C [33]: 6.17%
viability, T/C [34]: 4%
viability, T/C [21]: 10.7%
viability, T/C [22]: 11.6%
viability, T/C [23]: 9.12%
viability, T/C [24]: 7.56%
viability, T/C [35]: 6.68%
viability, T/C [36]: 5.63%

IC50 (second compound 0.000949 µM): 116 nM
IC50 (second compound 0.003 µM): 63.1 nM
IC50 (second compound 0.00949 µM): < 31.6 nM
IC50 (second compound 0.03 µM): < 31.6 nM
IC50 (second compound 0.0949 µM): < 31.6 nM
IC50 (second compound 0.3 µM): < 31.6 nM
Structure (SMILES): NC1c2ccccc2OC12CCN(c1cnc3c(N4CCCc5ncccc54)n[nH]c3n1)CC2 (stereo unspecified) + CCn1c(-c2cc(N3CCN(C)CC3)cnc2C(C)OC)c2c3cc(ccc31)-c1csc(n1)CC(NC(=O)C1CC1C)C(=O)N1CCCC(N1)C(=O)OCC(C)(C)C2
viability, T/C [1]: 85.1%
viability, T/C [2]: 54.5%
viability, T/C [3]: 20.4%
viability, T/C [4]: 8.29%
viability, T/C [25]: 8.32%
viability, T/C [26]: 8.57%
viability, T/C [5]: 69.2%
viability, T/C [6]: 37.2%
viability, T/C [7]: 8.71%
viability, T/C [8]: 5.81%
viability, T/C [27]: 5.89%
viability, T/C [28]: 8.17%
viability, T/C [9]: 44.1%
viability, T/C [10]: 11.7%
viability, T/C [11]: 6.79%
viability, T/C [12]: 5.19%
viability, T/C [29]: 5.86%
viability, T/C [30]: 7.32%
viability, T/C [13]: 15.4%
viability, T/C [14]: 9.39%
viability, T/C [15]: 6.76%
viability, T/C [16]: 6.09%
viability, T/C [31]: 6.31%
viability, T/C [32]: 7.21%
viability, T/C [17]: 10.1%
viability, T/C [18]: 7.59%
viability, T/C [19]: 5.43%
viability, T/C [20]: 4.79%
viability, T/C [33]: 4.55%
viability, T/C [34]: 7.03%
viability, T/C [21]: 9.29%
viability, T/C [22]: 7.37%
viability, T/C [23]: 5.01%
viability, T/C [24]: 4.13%
viability, T/C [35]: 4.98%
viability, T/C [36]: 5.88%
